Assay results reported in PMC7205388, “Per-6-Thiolated Cyclodextrins: A Novel Type of Permeation Enhancing Excipients for BCS Class IV Drugs” (ACS Applied Materials & Interfaces, 2020).

How the values were obtained:
Caco-2 cell monolayer = assay: TEER measurement on the Caco-2 cell monolayer; assay type: cell-based, human; conditions: for decrease in TEER: Caco-2 monolayer, during 3 h permeation experiment; for TEER regained in comparison to initial values: after cell washing and incubating with MEM
Protocol: Permeation studies on the Caco-2 cell monolayer were executed as described previously.[23] Caco-2 cells at a density of 0.6 × 10^5 cells/cm^2 were seeded onto 24-well plates with ThinCert inserts (pore-size: 400 μm, Greiner Bio-One, Kremsmünster, Austria). Cells were cultured in MEM containing 20% FCS in an atmosphere of 5% CO2 and 95% humidity at 37 °C. The medium was renewed every other day for 21 days. For permeation studies, only cell monolayers showing a transepithelial electrical resistance (TEER) in the range of 300–500 Ω cm^2 were applied, which were determined with an EVOM instrument. TEER was also determined at time point 3 h representing the end of the permeation experiment and after 24 and 48 h to confirm monolayer integrity. Before the start of the experiment, cells were washed with PBS. Thereafter, 500 μL of MEM without FCS was transferred to the donor chamber and 1000 μL of the same medium was transferred to an accepter chamber.

[1] = Phase-solubility study with FUR (apparent stability constant KC); assay type: physicochemical; conditions: aqueous solution, room temperature, 1:1 complex
Protocol: The suspension was homogenized at room temperature using a thermomixer (Thermomixer C, Eppendorf, Austria) at 750 rpm until equilibrium in solubility was reached (3–4 days).

[2] = Resazurin cytotoxicity assay on Caco-2 cells; assay type: cell-based, human; conditions: human, read-out: cell viability
Protocol: (§1) The impact of per-6-thiolated α-CD on viability of human colorectal carcinoma (Caco-2) cells was evaluated by resazurin assay to confirm the safety of the newly synthesized oligomer. For this purpose, Caco-2 cells were obtained from the European Collection of Cell Cultures (Salisbury, UK). Caco-2 cells at a density of 2.5 × 10^4 cells/well were suspended in 500 μL of MEM and seeded to a 24-well plate. The plate was incubated at an atmosphere of CO2 (5%) and relative humidity (95%) at 37 °C for 2 weeks. During this culture period, the medium was replaced on alternative days.
(§2) Toxicity assay was performed to investigate the cytotoxic potential of per-6-thiolated α-CD by quantifying resorufin formed by the reduction of resazurin. On the day of the experiment, cells of around 80% confluency were washed two times with preheated 10 mM PBS pH 7.4. The oligomer solutions (500 μL) of per-6-thiolated and unmodified α-CD (0.5% m/v) in white MEM, 4% (v/v) Triton X-100 acting as a negative control and white MEM acting as a positive control were transferred to the cell culture wells.
(§3) After 3 and 24 h, test samples were withdrawn, and the cells were washed two times with preheated PBS. In the following, 500 μL of resazurin (2.2 μM) solution was added, and cells were further incubated for 3 h. Aliquots (100 μL) were inserted to a 96-well plate, and the fluorescence was analyzed at emission and excitation wavelength of 590 and 540 nm utilizing a microplate reader (M-200 spectrometer; Tecan infinite, Austria). Cell viability of cells was measured using eq 1 [drawing 1] 1

[3] = tested on: human colorectal carcinoma (Caco-2) cells; assay: Resazurin cytotoxicity assay on Caco-2 cells; assay type: cell-based; conditions: 0.5% (m/v), within 24 h
Protocol: as §1, §2, §3

[4] = pKa of −SH groups by photometric method; assay type: physicochemical; conditions: 0.001 M HCl containing 0.1 M NaCl, titrated with 0.01% NaOH; absorbance at 242 nm, 0.1% m/v
Protocol: As the stability of sulfhydryl groups depends on thiolate anions concentration, the pKa value of −SH groups on per-6-thiolated α-CD was determined via an established photometric method with some modifications.[17] Briefly, ionic strength was stabilized by dissolving per-6-thiolated α-CD (0.1% m/v) in 0.001 M HCl containing 0.1 M NaCl. Increasing volumes of 0.01% NaOH were added to per-6-thiolated CD solutions that were continuously measured regarding pH and absorbance at 242 nm. The pKa was determined by plotting pH versus −log[(Amax – Ai)/Ai].

[5] = Stability of −SH groups toward oxidation at different pH; assay type: physicochemical
Protocol: Furthermore, the stability of the thiolated CD was measured under different pH. In short, per-6-thiolated α-CD (0.25% m/v) was hydrated in water, and pH was adjusted to 4 and 5 with acetate buffer (50 mM), to 6 with phosphate buffer (50 mM), and to 7.2 with Tris buffer (50 mM). Test samples were kept under continuous stirring at 37 °C. After specific time intervals, aliquots of 500 μL were taken. Any further reaction was quenched by adding 50 μL of 1 M HCl to each aliquot.[18] Sulfhydryl groups were quantified using Ellman’s reagent.

[6] = Quantification of −SH content with Ellman's reagent; assay type: physicochemical
Protocol: Per-6-thiolated α-CD was assessed for the amount of thiol by using Ellman’s reagent.[16] The calibration curve was established using L-cysteine.

SMILES | decrease in TEER (Caco-2 cell monolayer) | apparent stability constant (KC) with FUR [1] [M^–1] | viability at 3 h, 0.5 % (m/v) ([2]; after 3 h) [%] | viability at 24 h, 0.5 % (m/v) ([2]; after 24 h) [%] | cytotoxicity [3] | pKa [4] | −SH groups oxidized ([5]; after 3 h at pH 5, 37 °C) [%] | stability of −SH groups ([5]; pH 4, 37 °C, 0.25% m/v) | stability of −SH groups ([5]; pH ≤ 4) | TEER regained in comparison to initial values (Caco-2 cell monolayer; after 24 h) [%] | TEER regained in comparison to initial values (Caco-2 cell monolayer; after 48 h) [%] | amount of −S–S– groups on the CD backbone [6] [µmol/g] | amount of −SH groups on the CD backbone ([6]; Ellman's reagent) [µmol/g]
OC[C@H]1O[C@@H]2O[C@H]3[C@H](O)[C@@H](O)[C@@H](O[C@H]4[C@H](O)[C@@H](O)[C@@H](O[C@H]5[C@H](O)[C@@H](O)[C@@H](O[C@H]6[C@H](O)[C@@H](O)[C@@H](O[C@H]7[C@H](O)[C@@H](O)[C@@H](O[C@H]1[C@H](O)[C@H]2O)O[C@@H]7CO)O[C@@H]6CO)O[C@@H]5CO)O[C@@H]4CO)O[C@@H]3CO [α-CD, α-cyclodextrin, reference compound] | ~15% | 1050.7 | – | – | – | – | – | – | – | – | – | – | –
O[C@@H]1[C@@H](O)[C@H]2O[C@H]3[C@H](O)[C@@H](O)[C@@H](O[C@H]4[C@H](O)[C@@H](O)[C@@H](O[C@H]5[C@H](O)[C@@H](O)[C@@H](O[C@H]6[C@H](O)[C@@H](O)[C@@H](O[C@H]7[C@H](O)[C@@H](O)[C@@H](O[C@@H]1[C@@H](CS)O2)O[C@@H]7CS)O[C@@H]6CS)O[C@@H]5CS)O[C@@H]4CS)O[C@@H]3CS [per-6-thiolated α-CD, per-6-thiolated α-cyclodextrin] | up to 28% | 1090.9 | > 88 | > 88 | not cytotoxic | 8.1 | 15 | stable | stable | 82 | 90 | 786 ± 139 | 4244 ± 402
